Measurements published in patent publication US20110212100A1, “METHODS FOR MODULATING DEVELOPMENT AND EXPANSION OF IL-17 EXPRESSING CELLS” (priority 2007, published 2011).
Where “and” joins values, the source holds several entries; their conditions need not be identical. Equal entries are not always repeated. Where two headings read alike, the source gives them in different places.

Tests used:
[1] = tested on: TGFβ-induced Smad phosphorylation; experiment: TGFβ signaling in T and B cells (Smad phosphorylation, lymphocyte responses to TGFβ); assay type: cell-based, mouse; details: HF 2.5-40 nM or 10 nM; SB-431542 10 μM
Protocol: T cells were then activated in the presence or absence of 3 ng/ml. TGFβ. Whole cell extracts were prepared after 1 hour of stimulation and western blot analyses were performed using the indicated antibodies.
Western blotting: Whole cell lysates were generated from T cells activated for the indicated times. For STAT3 and Smad2/3 western blots cells were harvested, washed in PBS and lysed in 50 mM Tris, pH 7.4, 0.1% SDS, 1% Triton-X100, 140 mM NaCl, 1 mM EDTA, 1 mM EGTA supplemented with protease inhibitors tablets (Roche-Germany), 1 mM NaF and 1 mM Na3VO4. For eIF2α and ATF4 western blots, cells were harvested as above and lysed in 50 mM Tris, pH 7.4, 2% SDS, 20% glycerol and 2 mM EDTA supplemented with protease and phosphatase inhibitors as above. All lysates were cleared via centrifugation and 15-30 μg of protein was resolved by SDS-PAGE. Protein was transferred to nitrocellulose membranes, blocked and blotted using specific antibodies. Antibodies used for western blot analysis were anti-phospho-Smad2, anti-STAT3 (pY705), anti-STAT3, anti-eIF2α^pS51, anti-eIF2α, anti-GCN2^pT898, anti-GCN2 (all from cell signaling technology, Danvers, Mass.). Anti-ATF4/CREB2 and anti-β-actin were purchased from Santa Cruz biotechnology (Santa Cruz, Calif.). […]

[2] = cited from earlier work
[3] = tested on: Th17 differentiation of CD4+ CD25− T cells; experiment: Th17 differentiation (IL-17+ IFNγ− cells) of T cells activated with TGFβ plus IL-6; assay type: cell-based, mouse
Protocol: Low doses of halofuginone (HF) were tested to determine the ability of HF to enhance Treg differentiation, while suppressing Th17 differentiation. Nave. CD4+ T cells (CD4+ CD25−) were isolated from the spleen and peripheral lymph nodes of C57B/6 mice. T cells were then activated using anti-CD3 (0.3 μg/ml) and anti-CD28 (0.5 μg/ml) antibodies either in media alone (row 1, 4), TGFβ alone (3 ng/ml—row 2, 5) or TGFβ (3 ng/ml) plus IL-6 (30 ng/ml) (row 3, 6). […] T cells were cultured for 3 days and CD25 and Foxp3 expression (Treg marker genes) was determine by FACS staining and flow cytometric analyses. Simultaneously, T cells were harvested and re-stimulated for 4 hours using phorbol myristic acetate (PMA; 10 nM), Ionomycin (1 μM) and cytokine secretion was prevented using brefeldin A (20 μg/ml). Following stimulation, the production of IL-17 and IFNγ were determined by intracellular staining and analyzed via flow cytometry.
The dose-response of HF on CD4+ T cell proliferation, activation (i.e. CD25 upregulation) and differentiation to Th1, Th2 and Th17 lineages were evaluated. Purified murine naïve CD4+ CD25− T cells were activated using anti-CD3 (0.3 μg/ml) and anti-CD28 (0.5 μg/ml) antibodies and varying amounts of HF was added to each T cell culture condition (1.25 nM-40 nM). CD4+ T cell proliferation was monitored by CFSE dilution on day 3-post activation and CD25 expression was evaluated by FACS staining 2 days after activation. For T cell differentiation experiments, naïve T cells were activated as above in the presence of Th1 (IL-12 (20 ng/ml) plus anti-IL-4 (10 μg/ml)), Th2 (IL-4 (50 ng/ml) plus anti-IFNγ (0.5 mg/ml)) or Th17 (TGFβ (3 ng/ml) plus IL-6 (30 ng/ml)) polarizing conditions plus titrating amounts of HF (1.25 nM-40 nM) or MAZ1310 (40 nM). The percentage of Th17 cells, (IL-17^+ IFNγ^−) was evaluated on day 3 following activation, whereas the abundance of Th1 cells (IFNγ^+ IL-4) and Th2 cells (IL-4^+ IFNγ^−) was determined 5 days following activation. All cytokine expression was determined by intracellular staining following PMA+Ionomycin+Brefeldin A re-stimulation and all data was normalized to control (MAZ1310)-treated cells. […] Biol., vol. 80:1-8 (2006).
Cytokines, antibodies and T cell culture: Purified CD4^+ CD25^− T cells were activated in vitro as previously described (I. M. Djuretic et al., Nat Immunol 8, 145 (2007)) using 0.3 μg/ml hamster anti-mouse CD3 (clone 145-2C11) (ATCC—Manassas, Va.) and 0.5 μg/ml hamster anti-mouse CD28 (BD Pharmingen, San Jose, Calif.). Activated cell cultures were differentiated using the following combinations of cytokines and antibodies: iTreg=recombinant human TGFβ1 (3 ng/ml; R&D systems, Minneapolis, Minn.), Th17βTGFβ1 (3 ng/ml) plus recombinant mouse IL-6 (30 ng/ml, R&D systems). Th1 and Th2 differentiation was performed as previously described. (I. M. Djuretic et al., Nat Immunol 8, 145 (2007)). Human IL-2 supernatant (National Cancer Institute) was used in culture at 0.01 U/ml and was added at 48 hours-post activation when T cells were split into tissue culture wells lacking CD3 and CD28 antibodies, with the exception of Th17 cultures that were maintained in the absence of IL-2. All reagents were added at the time of T cell activation and again at 48-hours post activation unless indicated otherwise. For some experiments, purified CD4^+ CD25^− T cells, CD8^+ T cells or B cells were labeled with 1 μM CFSE (Invitrogen) prior to activation in accordance with manufacturers instructions.
Detection of cytokine production: Cytokines secreted into media supernatant were measured using the mouse Th1/Th2 cytometric bead array (CBA, BD Pharmingen) in accordance with manufacturers instructions.

O=C(CC1NCCCC1O)Cn1cnc2cc(Br)c(Cl)cc2c1=O (racemic) [HF, 7-bromo-6-chloro-3-[3-(3-hydroxy-2-piperidinyl)-2-oxopropyl]-4(3H)-quinazolinone]
effect on TGFβ-induced Smad phosphorylation and other lymphocyte responses to TGFβ, in words [1]: inhibited neither TGFβ-induced Smad phosphorylation | peak plasma concentration ([2]; oral 3.5 mg/day): 3 ng/ml and ~8 nM | dose at which dose limiting toxicity occurred ([2]; oral (de Jonge et al.)): 3.5 mg/day | dose limiting toxicity, in words ([2]; oral): nausea and vomiting | recommended tolerated dose for chronic treatment ([2]; oral): 0.5 mg/day | dose limiting toxicity, in words ([2]; oral, listed as halofuginone): nausea | time of addition giving most pronounced inhibition of IL-17 expression, in words ([3]; 10 nM HF added at indicated times after activation): most pronounced when HF was added during a 12-hour window at the start of the culture period | effect on Il17 and Il17f mRNA expression, in words ([3]; 10 nM HF, 4 days, Th17 cytokine conditions): impaired expression of both Il17 and Il17f mRNA | IL-17 expression in T cells lacking Foxp3, in words ([3]; 10 nM HF, Foxp3 KO naïve CD4+ T cells, TGFβ plus IL-6): strongly repressed IL-17 expression | Th17 differentiation of T cells expressing STAT3C, in words ([3]; 10 nM HF, STAT3C-GFP+ cells): remained capable of differentiating into Th17 cells | Th17 differentiation of cells expressing YFP or no transgene, in words ([3]; 5-10 nM HF, TAT-Cre treated T cells): strongly impaired | fold lower doses for effects on Th17 differentiation versus general inhibition of T-cell proliferation and Th1/Th2 differentiation ([3]; FIG. 7): 5- to 10 fold and ~10 fold | Th17 differentiation in T cells transduced with RORγt-expressing versus empty retroviruses, in words ([3]; MIG.RORγt vs MIG): inhibited Th17 differentiation as effectively | IC50 ([3]; Mus musculus, T-cell, in vitro, read-out: concentration for 50% inhibition of Th17 cell development): ~3 nM | concentration window of specific inhibition of Th17 differentiation ([3]; exogenously added HF, TGFbeta in the presence of IL-6): 2 to 30 nM
